US4677107A, “Anti-peptic ulcer agent” (Dainippon Pharmaceutical Co., Ltd., priority 1983, dated 1987)

Legend:
pupil size = test: Mydriatic action in rats; format: in vivo, male Wistar strain rats; details: for Percent mydriasis: one hour after administration, 3 mm dilation = 100 percent
From the text: [IV] Mydriatic action in rats:
Male Wistar strain rats (weighing, 150-200 g) were used. Pupil size of the animals was twice measured microscopically just before and one hour after administration of drugs at a distance of 30 cm from the source of a constant light (30 W fluorescent light) according to the method of Pulewka [cf. Arch. exp. Path. U. Pharmakol., 168, 307 (1932)]. Based on the change between the first measured pupil size and the second measured pupil size, mydriasis percentage was calculated provided that mydriasis percentage is supposed to be 100 percent in case of 3 mm dilation of pupil size in diameter. Drugs to be tested were suspended in 0.5% tragacanth solution and administered. In the control group, a vehicle (0.5% tragacanth solution) was administered.

[1] = Toxicological study, LD50 rat; details: in vivo, po, Rat (SD strain)
Description: (§1) Further, the toxicological study was conducted according to the conventional method on Compound B. The results are shown in Table 5.

[2] = system: ulceration induced by pylorus-ligation; test: Effect on the ulceration induced by pylorus-ligation in rats; format: in vivo, male Wistar strain rats
Description: [II] Effect on the ulceration induced by pylorus-ligation in rats: Male Wistar strain rats (weighing about 190 g) were fasted for 48 hours before experiment. The pylorus of each rat was ligated under ether anaesthesia according to the method of Shay et al. [cf. Shay, H., et al., Gastroenterology, 5, 43-61 (1945)]. Each of the animals was then allowed to stand abstained from food and water in a cage. After 18 hours, the animals were sacrificed under ether anaesthesia, and the stomachs were removed and cut open along the greater curvature. […] 4: marked ulcers more than two 5: perforated ulcer The ulcer index in drug treated groups was compared to that in the control group, and thereby, the inhibitory percentage was calculated and then ED50, i.e. the dose required for 50% inhibition of ulcer index, was determined by the usual graphic method. Drugs to be tested were suspended in 0.5% tragacanth solution and administered 30 minutes before the ligation. In the control group, a vehicle (0.5% tragacanth solution) was administered.

[3] = Toxicological study, LD50 mouse; details: in vivo, po, Mouse (ICR strain)
Description: as §1

gastric secretion = test: Effect on gastric secretion in rats (pylorus ligation, total acid content); format: in vivo, male Wistar strain rats
Description: [III] Effect on gastric secretion in rats: Male Wistar strain rats (weighing, about 200 g) were fasted for 24 hours before experiment. The pylorus was ligated under ether anaesthesia. Four hours after the ligation, the stomach was removed under ether anaesthesia. The gastric content was collected and centrifuged, and the secretory volume, pH and acid content of the supernatant were measured. The acid content was measured by titrating to pH 7.0 with 0.02N NaOH using pH meter (Hitachi Horiba, M-5). The total acid content of the drug treated groups was compared with that of the control group, and thereby, the reduction percentage of acid content was calculated and then ED50, i.e. the dose required for 50% reduction of acid content, was determined by the usual graphic method. Drugs to be tested were suspended in 0.5% tragacanth solution and administered orally 30 minutes before the ligation. In the control group, a vehicle (0.5% tragacanth solution) was administered.

[4] = system: ulceration induced by exposure to stress (restraint and water immersion); test: Effect on the ulceration induced by exposure to stress (restraint and water immersion); format: in vivo, male Wistar strain rats; details: ulcer index = sum of length (mm) of lesions
Description: [I] Effect on the ulceration induced by exposure to stress (restraint and water immersion): Male Wistar strain rats (weighing, about 200 g) were placed in a stress cage which served to immobilize the animals therein and then immersed in a water bath of 23° C. to the height of xiphoid of the animals according to the method of Takagi et al. [cf. Takagi, K. and Okabe, S., Japan. J. Pharmacol., 18, 9 (1968)]. After 20 hours, the animals were sacrificed and the stomach was removed. The stomach was inflated with 13 ml of saline and placed in 5% formalin solution for 5 minutes. After washing with saline, the stomach was cut open along the greater curvature and the length (mm) of each lesion in the glandular portion was measured using a dissecting microscope (×12). The sum of the length (mm) of each lesions in a stomach was indicated as an ulcer index. In case of reference experiment using butylscopolamine bromide, a photograph of the mucosal surface of stomach was taken after the stomach was treated in the same manner as described above. The photograph was magnified by nine times, and the sum of the area (mm^2) of each lesions in a stomach was indicated as an ulcer index. The ulcer index in drug treated groups was compared with that in control group, and thereby, inhibitory percentage was calculated and then ED50 value, i.e., the dose required for 50% inhibition of the ulcer index, was determined by the usual graphic method. Drugs to be tested were suspended in 0.5% tragacanth solution and administered orally 30 minutes before the immersion. In the control group, a vehicle (0.5% tragacanth solution) was administered.

[5] = U.S. Pat. No. 4,237,135 and U.K. Pat. No. 2,017,698; cited from earlier work
[6] = system: mouse-killing behavior of olfactory bulb-ablated rats; details: U.S. Pat. No. 4,237,135 and U.K. Pat. No. 2,017,698; cited from earlier work
[7] = system: brain noradrenaline turnover; details: U.S. Pat. No. 4,237,135 and U.K. Pat. No. 2,017,698; cited from earlier work
[8] = Conversion after oral administration; format: in vivo; details: orally administered
[9] = U.S. Pat. No. 4,237,135 and U.K. Pat. No. 2,017,698; cited from earlier work; remark: listed apart in the source
[10] = U.S. Pat. No. 4,237,135 and U.K. Pat. No. 2,017,698; cited from earlier work; remark: listed apart in the source

Structure (SMILES): CCN1CCN(c2cc(-c3ccccc3)c3ccccc3n2)CC1.O=C(O)/C=C\C(=O)O.O=C(O)/C=C\C(=O)O [Compound B, 2-(4-ethyl-1-piperazinyl)-4-phenylquinoline dimaleate]
- Percent mydriasis (pupil size; 5 mg/kg p.o.): 0%
- Percent mydriasis (pupil size; 10 mg/kg p.o.): 2.7%
- Percent mydriasis (pupil size; 20 mg/kg p.o.): 4.7%
- Percent mydriasis (pupil size; 50 mg/kg p.o.): 2.0%
- Percent mydriasis (pupil size; 100 mg/kg p.o.): 2.7%
- mydriatic action (in words) (pupil size; rats, up to 100 mg/kg): did entirely not show any mydriatic action even in a dose of 100 mg/kg
- LD50 [1]: ~3600 mg/kg
- Ulcer index Inhibitory % ([2]; 5 mg/kg p.o.): 0%
- Ulcer index Inhibitory % ([2]; 10 mg/kg p.o.): 28.6%
- Ulcer index Inhibitory % ([2]; 20 mg/kg p.o.): 57.1%
- Ulcer index Inhibitory % ([2]; 50 mg/kg p.o.): 78.6%
- ED50 ([2]; Rattus norvegicus, po, 30 minutes before ligation, rats, 18 hours, ulcer index 0 to 5, read-out: ED50 (dose required for 50% inhibition of ulcer index)): 19 mg/kg
- LD50 [3]: ~1200 mg/kg
- Total acid content Reduction % (gastric secretion; 0.5 mg/kg p.o.): 27.8%
- Total acid content Reduction % (gastric secretion; 1 mg/kg p.o.): 24.0%
- Total acid content Reduction % (gastric secretion; 2 mg/kg p.o.): 47.8%
- Total acid content Reduction % (gastric secretion; 5 mg/kg p.o.): 60.2%
- ED50 (gastric secretion; Rattus norvegicus, po, 30 minutes before ligation, rats, 4 hours after ligation, read-out: ED50 (dose required for 50% reduction of acid content)): 2.8 mg/kg
- Ulcer index Inhibitory % ([4]; 1 mg/kg p.o.): 44.5%
- Ulcer index Inhibitory % ([4]; 2 mg/kg p.o.): 66.6%
- Ulcer index Inhibitory % ([4]; 5 mg/kg p.o.): 90.1%
- ED50 ([4]; Rattus norvegicus, po, 30 minutes before immersion, rats, read-out: ED50 (dose required for 50% inhibition of the ulcer index)): 1.2 mg/kg

Structure (SMILES): CCN1CCN(c2cc(-c3ccccc3)c3ccccc3n2)CC1 [2-(4-ethyl-1-piperazinyl)-4-phenylquinoline]
- anti-reserpine activity [5]: showed anti-reserpine activity
- suppression of mouse-killing behavior of olfactory bulb-ablated rats [6]: suppression of mouse-killing behavior of olfactory bulb-ablated rats
- inhibition of brain noradrenaline turnover [7]: inhibition of brain noradrenaline turnover
- conversion on oral administration [8]: partially converted into 2-(1-piperazinyl)-4-phenylquinoline
- anti-tremorine activity [9]: has also anti-tremorine activity
- anti-tetrabenazine activity [10]: anti-tetrabenazine activity
